Results: patent US6825181B1, “Aminoisoquinoline derivatives” (Ajinomoto Co., Inc., priority 1998, dated 2004)

Legend:
Type in all cases: biochemical
[1] = biological target: T1, human thrombin (Homo sapiens, UniProt P00734); assay: Determination of thrombin-inhibiting activity; conditions: negative logarithm of concentration inhibiting 50% of initial rate; substrate S-2238, pH 8.4; read-out: Thrombin-inhibiting activity (pIC50) (converted)
T1 construct: solution of human thrombin (a product of SIGMA Co.); purchased SIGMA Co
Experimental: Determination of Thrombin-Inhibiting Activity:
130 μl of 100 mM tris hydrochloride buffer adjusted to pH 8.4 was added to 10 μl of an aqueous solution of a test compound. Then 10 μl of a solution of human thrombin (a product of SIGMA Co.) adjusted to 2 units/ml with tris hydrochloride buffer of pH 8.4 was added to the resultant mixture. After the incubation at room temperature for 10 minutes, 50 μl of a solution of D-phenylalanyl-L-pipecolyl-L-arginyl-P-nitroanilide dihydrochloride (S-2238; a product of Daiichi Kagaku Yakuhin Co.) adjusted to 0.4 mM with tris hydrochloride buffer of pH 8.4 was added thereto. The absorbance was determined and then the initial reaction rate was determined. A control was prepared in the same manner as that described above except that the solution of the compound to be tested was replaced with 10 μl of tris hydrochloride buffer adjusted to pH 8.4. The absorbance was determined with MICROPLATE READER Model 3550-UV (a product of […]) at a wave length of 405 nm at intervals of 15 seconds for 16 minutes. The negative logarithm (pIC50) of a concentration of the test compound which inhibits 50% of the activity (initial rate) of the thrombin in the absence of the test compound was determined, and employed as the index of the activity of inhibiting thrombin.

[2] = biological target: T2, activated human blood coagulation factor X (Homo sapiens, UniProt P00742); assay: Determination of activity of inhibiting the activated blood-coagulation factor X; conditions: negative logarithm of concentration inhibiting 50% of initial rate; pH 8.4, room temperature; read-out: Activity of inhibiting activated blood coagulation factor X (pIC50) (converted)
T2 construct: purchased Enzyme Research Co
T2 sequence (P00742 235-488 limits assumed): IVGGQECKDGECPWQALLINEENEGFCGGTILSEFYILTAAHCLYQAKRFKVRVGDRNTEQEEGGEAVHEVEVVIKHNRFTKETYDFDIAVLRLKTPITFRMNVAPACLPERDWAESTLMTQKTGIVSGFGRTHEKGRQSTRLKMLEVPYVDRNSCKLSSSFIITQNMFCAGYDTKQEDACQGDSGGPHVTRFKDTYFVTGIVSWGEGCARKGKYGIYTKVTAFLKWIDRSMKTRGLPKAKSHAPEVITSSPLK
T2 sequence (P00742 41-179 partner limits assumed): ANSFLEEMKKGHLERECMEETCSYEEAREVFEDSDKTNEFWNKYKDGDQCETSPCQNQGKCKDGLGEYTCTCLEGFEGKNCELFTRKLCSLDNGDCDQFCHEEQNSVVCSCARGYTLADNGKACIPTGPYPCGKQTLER
Experimental: Determination of Activity of Inhibiting the Activated Blood-Coagulation Factor X
130 μl of 100 mM tris hydrochloride buffer adjusted to pH 8.4 was added to 10 μl of an aqueous solution of a compound to be tested. Then 10 μl of a 0.5 unit/ml solution of activated human blood coagulation factor X (a product of Enzyme Research Co.) in tris hydrochloride of pH 8.4 was added to the resultant mixture. After the incubation at room temperature for 10 minutes, 50 μl of a solution of N-benzoyl-L-isoleucyl-L-glutamyl-glycyl-L-arginyl-P-nitroanilide hydrochloride (a product of Peptide Institute, Inc.) adjusted to 0.8 mM with tris hydrochloride (pH 8.4) was added thereto. The absorbance was determined and then the initial reaction rate was determined. A control was prepared in the same manner as that described above except that the solution of the compound to be tested was replaced with 10 μl of tris hydrochloride buffer adjusted to pH 8.4. The absorbance was determined with MICROPLATE READER Model 3550-UV (a product of BIO RAD) at a wave length of 405 nm at intervals of 15 seconds for 16 minutes.

[3] = test system: blood plasma from healthy people (prothrombin time); assay: Determination of blood anticoagulating activity by prothrombin time (PT) determination method; conditions: negative logarithm of concentration which elongated PT of the control to twice as long; human blood plasma
Experimental: Determination of Blood Anticoagulating Activity:
The blood anticoagulating activity was determined by a prothrombin time (PT) determination method. The PT was determined as follows: The blood was taken from healthy people. 3.8% aqueous trisodium citrate solution was added to the blood in a volume ratio of 1:10. The blood plasma was separated by the centrifugation. 5 μl of DMSO solution containing a test compound was added to 45 μl of the blood plasma. After the incubation at room temperature for 2 minutes, a test tube containing the blood plasma solution was placed in Sysmex CA-3000 fully automatic blood coagulation determination device (a product of To a Medical Electronics Co., Ltd.), and incubated at 37° C. for 3 minutes. 100 μl of Sysmex PT II (rabbit brain tissue thromboplastin, 13.2 mM calcium chloride; a product of To a Medical Electronics Co., Ltd.) was fed into the test tube. PT was automatically determined with the device. A sample containing […] of DMSO in place of the solution of the test compound was used as the control. The negative logarithm (PT2) of the concentration of the test compound which elongated PT of the control to the twice as long was determined, and employed as the index of the blood anticoagulating activity.

SMILES | IC50 [1] | IC50 [2] | Blood anticoagulating activity (PT2) [3]
Nc1nccc2ccc(OC[C@@H](CCC(=O)O)NC(=O)c3ccc(C(=O)N4CCCC4)cc3)cc12 [Compound of Ex. 16, (4R)-5-(1-aminoisoquinoline-7-yloxy)-4-[4-(1-pyrrolidinecarbonyl)benzoylamino]pentanoic acid mono-trifluoroacetate] | > 1000 µM | 0.0794 µM | 5.6
CCOC(=O)CC[C@H](COc1ccc2ccnc(N)c2c1)NC(=O)c1ccc(C(=O)N2CCCC2)cc1 [Compound of Ex. 17, ethyl (4R)-5-(1-aminoisoquinoline-7-yloxy)-4-[4-(1-pyrrolidinecarbonyl)benzoylamino]pentanoate mono-trifluoroacetate] | 316 µM | 0.251 µM | 
Nc1nccc2ccc(OC[C@@H](CCC(=O)O)NC(=O)C3CCN(c4ccncc4)CC3)cc12 [Compound of Ex. 21, (4R)-5-(1-aminoisoquinoline-7-yloxy)-4-[(1-(4-pyridyl)-4-piperidine)carbamido]pentanoic acid bistrifluoroacetate] | 316 µM | 0.158 µM | 
N=C(N)Nc1ccc(C(=O)N[C@H](CCC(=O)O)COc2ccc3ccnc(N)c3c2)cc1 [Compound of Ex. 25, (4R)-5-(1-aminoisoquinoline-7-yloxy)-4-[4-(guanidino)benzoylamino]pentanoic acid mono-trifluoroacetate] | 794 µM | 0.398 µM | 
Nc1nccc2cc(CC(=O)C(=O)O)c(OCCNC(=O)C3CCN(c4ccncc4)CC3)cc12 [Compound of Ex. 27, 3-[1-amino-7-(2-(4-(1-(4-pyridyl)-4-piperidine)carbonylamino)ethoxy)isoquinoline-6-yl]-2-oxopropionic acid bistrifluoroacetate] | > 501 µM | 0.251 µM | 6.2

Continued, in another order:

IC50 [1] | IC50 [2] | SMILES | Blood anticoagulating activity (PT2) [3]
251 µM | 0.251 µM | Nc1nccc2ccc(OCCNC(=O)c3ccc(C(=O)N4CCCC4)cc3)cc12 [Compound of Ex. 2, N-[2-(1-aminoisoquinoline-7-yloxy)ethyl]-4-(1-pyrrolidinecarbonyl)benzamide mono-trifluoroacetate] | 5.5
15.8 µM | 0.0251 µM | Nc1nccc2cc(CC(=O)C(=O)O)c(OCCNC(=O)c3ccc(C(=O)N4CCCC4)cc3)cc12 [Compound of Ex. 23, 3-[1-amino-(2-(4-(1-pyrrolidinecarbonyl)benzoylamino)ethoxy)isoquinoline-6-yl]-2-oxopropionic acid mono-trifluoroacetate] | 
> 501 µM | 0.2 µM | CC(=N)N1CCC(Oc2ccc(C(=O)NCCOc3cc4c(N)nccc4cc3CC(=O)C(=O)O)cc2)CC1 [Compound of Ex. 26, 3-[1-amino-7-(2-(4-(1-acetimidoyl-4-piperidyloxy)benzoylamino)ethoxy)isoquinoline-6-yl]-2-oxopropionic acid bistrifluoroacetate] | 6.2
